Measurements as given in a compilation of properties of binary mixtures (doi:10.1016/j.molliq.2019.110987).

Experiment: xn = mol fraction of the nth substance listed
Details: 100 kPa

CN(C)C=O + CCCC[P+](C)(CCCC)CCCC.COS(=O)(=O)[O-]
x2 = 0
Details | speed of sound [m/s] | viscosity [mPa·s]
293.15 K | 1484.1 | 0.867
298.15 K | 1468.9 | 0.813
303.15 K | 1447.2 | 0.764
313.15 K | 1410.2 | 0.684
318.15 K | 1391.2 | 0.663

CCCC[P+](C)(CCCC)CCCC.COS(=O)(=O)[O-] + CN(C)C=O
Details | speed of sound [m/s] | viscosity [mPa·s]
293.15 K, x1 = 0.0474 | 1486.7 | 1.774
293.15 K, x1 = 0.0765 | 1492.6 | 2.681
293.15 K, x1 = 0.1106 | 1502.8 | 3.495
293.15 K, x1 = 0.1508 | 1513.1 | 5.02
293.15 K, x1 = 0.1991 | 1518.1 | 6.59
293.15 K, x1 = 0.2582 | 1529.5 | 12.72
293.15 K, x1 = 0.5542 | 1551.2 | 145.3
293.15 K, x1 = 0.6717 | 1554.1 | 246
293.15 K, x1 = 0.7768 | 1557.2 | 368
293.15 K, x1 = 0.8253 | 1559.8 | 439
293.15 K, x1 = 0.8837 | 1560.2 | 532
293.15 K, x1 = 1 | 1563.7 | 729
298.15 K, x1 = 0.0474 | 1472.5 | 1.934
298.15 K, x1 = 0.0765 | 1482.5 | 3.021
298.15 K, x1 = 0.1106 | 1491.5 | 4.201
298.15 K, x1 = 0.1508 | 1499.4 | 5.71
298.15 K, x1 = 0.1991 | 1506.2 | 9.12
298.15 K, x1 = 0.2582 | 1511.1 | 17.12
298.15 K, x1 = 0.3321 | 1523.3 | 24.22
298.15 K, x1 = 0.4272 | 1529.1 | 41
298.15 K, x1 = 0.5542 | 1535.5 | 80.9
298.15 K, x1 = 0.6717 | 1538.1 | 164.4
298.15 K, x1 = 0.7768 | 1540.5 | 267
298.15 K, x1 = 0.8253 | 1542.3 | 315
298.15 K, x1 = 0.8837 | 1544 | 389
298.15 K, x1 = 0.9362 | 1545 | 445
303.15 K, x1 = 0.0474 | 1453.5 | 1.154
303.15 K, x1 = 0.1106 | 1471.3 | 3.824
303.15 K, x1 = 0.1508 | 1479.2 | 4.91
303.15 K, x1 = 0.1991 | 1487.8 | 5.73
303.15 K, x1 = 0.2582 | 1497.1 | 11.88
303.15 K, x1 = 0.3321 | 1503.3 | 15.34
303.15 K, x1 = 0.4272 | 1510.1 | 31.14
303.15 K, x1 = 0.5542 | 1519.2 | 44.8
303.15 K, x1 = 0.6717 | 1520.1 | 115.1
303.15 K, x1 = 0.7768 | 1523.5 | 192.4
303.15 K, x1 = 0.8253 | 1525.4 | 233
303.15 K, x1 = 0.9362 | 1528.2 | 325
303.15 K, x1 = 1 | 1529.6 | 381
308.15 K, x1 = 0.0474 | 1434.9 | 2.009
308.15 K, x1 = 0.0765 | 1444.1 | 2.042
308.15 K, x1 = 0.1106 | 1452.2 | 3.858
308.15 K, x1 = 0.1508 | 1461.5 | 4.52
308.15 K, x1 = 0.1991 | 1470.1 | 5.96
308.15 K, x1 = 0.2582 | 1479.6 | 10.08
308.15 K, x1 = 0.3321 | 1485.8 | 13.81
308.15 K, x1 = 0.4272 | 1495.1 | 26.52
308.15 K, x1 = 0.5542 | 1501.1 | 37.9
308.15 K, x1 = 0.7768 | 1507 | 140.5
308.15 K, x1 = 0.8253 | 1509.1 | 170.5
308.15 K, x1 = 0.8837 | 1510.8 | 201
308.15 K, x1 = 0.9362 | 1513.8 | 242
308.15 K, x1 = 1 | 1514.3 | 286
313.15 K, x1 = 0.0765 | 1426.1 | 2.915
313.15 K, x1 = 0.1106 | 1433.2 | 3.012
313.15 K, x1 = 0.1508 | 1444.1 | 4.451
313.15 K, x1 = 0.1991 | 1452.6 | 5.02
313.15 K, x1 = 0.2582 | 1460.2 | 8.85
313.15 K, x1 = 0.3321 | 1469.2 | 13.52
313.15 K, x1 = 0.4272 | 1479.1 | –
313.15 K, x1 = 0.5542 | 1487.8 | 32.59
313.15 K, x1 = 0.6717 | 1489.8 | 66.5
313.15 K, x1 = 0.7768 | 1491.1 | 107.4
313.15 K, x1 = 0.8253 | 1494.8 | 127.5
313.15 K, x1 = 0.8837 | 1496.5 | 152.2
313.15 K, x1 = 0.9362 | 1497.5 | 182.7
318.15 K, x1 = 0.0474 | 1399.2 | 0.955
318.15 K, x1 = 0.0765 | 1409.7 | 1.855
318.15 K, x1 = 0.1106 | 1416.3 | 2.982
318.15 K, x1 = 0.1508 | 1425.5 | 4.147
318.15 K, x1 = 0.1991 | 1434.9 | 6.04
318.15 K, x1 = 0.4272 | 1463.7 | 20.74
318.15 K, x1 = 0.5542 | 1471.8 | 28.42
318.15 K, x1 = 0.6717 | 1475.1 | –
318.15 K, x1 = 0.7768 | 1478.2 | 81.3
318.15 K, x1 = 0.8253 | 1480.1 | 106.5
318.15 K, x1 = 0.8837 | 1482.6 | 127.4
318.15 K, x1 = 0.9362 | 1484.1 | 149.6
318.15 K, x1 = 1 | 1485.7 | 169.1
323.15 K, x1 = 0.0474 | 1382.2 | 1.897
323.15 K, x1 = 0.0765 | 1392.5 | 2.214
323.15 K, x1 = 0.1106 | 1398.2 | 2.469
323.15 K, x1 = 0.1991 | 1417.7 | 4.5
323.15 K, x1 = 0.2582 | 1425.1 | 9.48
323.15 K, x1 = 0.3321 | 1436.2 | 14.54
323.15 K, x1 = 0.4272 | 1445.5 | 19.56
323.15 K, x1 = 0.5542 | 1456 | 25.19
323.15 K, x1 = 0.6717 | 1461.6 | 43.1
323.15 K, x1 = 0.7768 | 1464.9 | –
323.15 K, x1 = 0.8253 | 1466.6 | 100.4
323.15 K, x1 = 0.9362 | 1471.7 | 123
323.15 K, x1 = 1 | 1472 | 133.4
